Measurements from a melting point compilation (Tetko et al.; mined from patent text by program, amines drawn as free bases though some values may be those of a salt).

Row | Compound | melting point [°C]
1 | CCCN(CCC)C1Cc2cccc3ccc(=O)n(c23)C1 (stereo not drawn) | 82 to 84
2 | CCOP(=O)(CC(=O)NNc1nc2ccc(C(F)(F)F)cc2n(O)c1=O)OCC | 193 to 196
3 | CCN(CC)CC(O)CSCC(=O)O (stereo not drawn) | 104
4 | O=C(NCCN1CCc2ccc3c(c21)CCO3)C1CC1 | 147 to 149
5 | CC1(C)CCC2(C(=O)O)CCC3(C)C(=CCC4C5(C)CC(O)C(O)C(C)(CO)C5CCC43C)C2C1O (stereo not drawn) | 220 to 222
6 | CCc1cccc2c3c([nH]c12)C(CC)(CC(=O)OC)OCC3=O (stereo not drawn) | 187 to 189
7 | Cc1cc(Br)ccc1-n1c(CF)nc2ccc([N+](=O)[O-])cc2c1=O | 208 to 210
8 | CC12CCC3C(CC=C4CC(O)CCC43C)C1CC=C2Br (stereo not drawn) | 162 to 164
9 | CCOC(=O)c1cc2cc([N+](=O)[O-])cc(CC)c2o1 | 114 to 116
10 | O=C1CCc2cc(OCC(F)(F)C(F)(F)F)ccc21 | 52 to 54
11 | CCCCCCCCC(=O)OCC(O)COC(=O)CCCCCCCC | 30 to 31
12 | CC(=O)N[C@@H](CCC(N)=O)C(=O)NC1(C(=O)NCCCCNC(N)=NC#N)Cc2ccccc2C1 | 122 to 133
13 | CC=CC=NNC(=O)c1cnccn1 | 192 to 194
14 | CN(C)C1C(O)CC2C3CCc4cc(O)ccc4C3CCC21C (stereo not drawn) | 240 to 242
15 | CN(C)Cc1ccc(CSCCNc2ncc([N+](=O)[O-])c(=O)[nH]2)o1 | 201 to 204
16 | CCN(CC)CC1CN=C(N)O1 (stereo not drawn) | 90
17 | COC(=O)c1cc2ccsc2s1 | 101 to 105
18 | Cc1cc(Cl)ccc1OCC(=O)N1CCSC1C(=O)O (stereo not drawn) | 147 to 148
19 | O=C(O)c1ccccc1C(=O)N1CC2CCC(C1)O2 | 149 to 150
20 | CCOC(=O)C=Cc1ccc(NC(=O)CC)cc1 | 138
21 | Cc1ccc2nc(S)sc2c1 | 179 to 181
22 | CC(C)n1c(=O)on(C(=O)n2oc(=O)n(C(C)C)c2=O)c1=O | 150
23 | O=C(CBr)c1ccc(Cl)c(Cl)c1Cl | 44 to 46

Row | Compound | melting point [°C]
24 | S=C=NCC1CC(c2ccc(Br)cc2)=NO1 (stereo not drawn) | 123 to 125
25 | COc1ccc(N2C3CCC2CC(=O)C3)cc1 | 133 to 134
26 | OCC1OC(n2c(Cl)nc3cc(Br)c(Br)cc32)C(O)C1O (stereo not drawn) | 126 to 129
27 | CN(C)C(=O)CC(=O)c1ccc(C(=O)CC(=O)N(C)C)cc1 | 188 to 189
28 | C[C@@H](S[C@H]1CC[C@H](/C=C/c2ccc(Cl)cc2)CC1)[C@](O)(Cn1cncn1)c1ccc(F)cc1F | 64 to 66
29 | CC(C(=O)O)c1ccc2c(c1)CC(C(C)C)C2 (stereo not drawn) | 90 to 91.5
30 | COc1ccc2c(c1)c(=O)n1nc(C(N)=O)cc1n2C | > 300
31 | CSc1ccc(CN2CC(C)(C)C(Oc3ccc(C#N)c(C(F)(F)F)c3)C2=O)cc1 (stereo not drawn) | 44.1 to 44.8
32 | CC(=O)C(C)=Cc1cc(O)c(O)c([N+](=O)[O-])c1 | 139 to 141
33 | COc1cc(OC)cc(C2(Cl)C(=O)Nc3ccc(Cl)cc32)c1 (stereo not drawn) | 157
34 | Nc1nc(NCCN2CCOCC2)nc(-c2cc(Cl)ccc2Cl)n1 | 159 to 161
35 | CC(CCC1C(C)CCCC1(C)C)Oc1ccc(C(=O)O)cc1 (stereo not drawn) | 114 to 118
36 | CCCCCCCCCCCCCCP(=O)(OC)OC | 32 to 33
37 | O=C(Nc1nnn[nH]1)c1cccc([N+](=O)[O-])c1Cl | 279
38 | CCOC(=O)C1=C(C#N)NC(C)=C(C(=O)OCCN(CC)CC)C1c1cccc([N+](=O)[O-])c1 (stereo not drawn) | 150 to 152
39 | COC(=O)NN=Cc1ccccc1N | 149 to 150
40 | CC(=O)C(=Cc1ccc(O)c(C(=O)O)c1)C(C)=O | 112 to 114
41 | C#Cc1cc2ncc(C#N)c(Nc3cc(OC)c(Cl)cc3Cl)c2s1 | 198 to 200
42 | C[Si](C)(C)CC(CN)CC(=O)O (stereo not drawn) | 167 to 168
43 | O=C(NC1CCCCC1)N(CCCN1CCC(Cc2ccccc2)CC1)c1ccccc1 | 106 to 108
44 | CCC(O)(C(N)=O)c1cc(C(F)(F)F)cc(C(F)(F)F)c1 (stereo not drawn) | 128 to 129
45 | Cn1c(C(F)(F)F)cc(=O)n(-c2c(F)cc(Cl)c3nc(C(Br)Br)oc23)c1=O | 144 to 146

Results, then the compound that gave them:

Row | melting point [°C] | Compound
46 | 118 to 120 | CC(C)[C@H](NC(=O)CCC(=O)c1ccccc1)C(=O)O
47 | 177 to 179 | CC(C)c1cccc(C(C)C)c1NC(=O)NCC1(c2ccc(-c3ccccc3)cc2)CCC1
48 | 30 | CC1C(NC(=O)OCc2ccccc2)C(=O)N1OCC(=O)OC(C)(C)C (stereo not drawn)
49 | 250 to 252 | Cc1cc(=O)n(-c2cccc(Cl)c2)c(=O)[nH]1
50 | 181 to 183 | CCCCc1oc2ccccc2c1C(=O)Nc1ccc(-c2ccc(O)cc2)cc1
51 | 112 to 113 | O=CNC(Cc1ccccc1)C1CC(Cc2ccccc2)=NO1 (stereo not drawn)
52 | 300 to 302 | Cc1cc(-c2cc(=O)c3cccnc3o2)ccc1O
53 | 105 to 115 | Cc1noc(NS(=O)(=O)c2ccccc2-c2ccc(-c3ncccn3)cc2CN2CCC(C)(C)C2=O)c1C
54 | 112 to 113 | Cc1cc(C(C)(C)c2ccc(O)cc2)ccc1O
55 | 203 to 204 | O=C(CN1CCN(C(c2ccccc2)c2ccccc2)CC1)Nc1ccc2ncnn2n1
56 | 199 to 202 | COc1cc(OC)nc(NC(=O)NS(=O)(=O)c2c3ccccc3nn2C)n1
57 | 194 to 195 | Cc1cccc2c1NC(=O)c1cscc1O2
58 | 140 to 141 | CCCCOCCOc1ccc(-c2ccc(N3CCC(C(=O)OC)C3)c(C=C(C)C(=O)O)c2)cc1 (stereo not drawn)
59 | 46 to 47 | CCCCCCCCCCCCCCCc1ccc(C(=O)c2ccccc2)c(O)c1
60 | 238 | Oc1ccc(Sc2nnc3cc(Cl)ccc3n2)cc1
61 | 175 | CC(=O)CC(=O)Nc1ccc(Cn2ccnc2)cc1
62 | 188 to 190 | O=C(O)Cc1cc(Cl)cc2c(-c3ccccc3)onc12
63 | 123 to 125 | COc1ccc2c(c1)-c1cc(OC)ccc1C2=O
64 | 215 to 216 | CC(=NO)c1nc(-c2cccnc2)[nH]c1C
65 | 99 to 101 | COc1ccc(-c2cc(Cl)c3ccc(OC)cc3n2)cc1

Row | melting point [°C] | Compound
66 | 161 to 162 | Cc1nc(NC(=O)NS(=O)(=O)C(Cl)C(C)Cl)nc(C)c1Cl (stereo not drawn)
67 | 139 to 140 | CC(C)(C)n1nnc(Cc2ccc(C(=O)O)cc2)n1
68 | 204 to 205 | O=C(O)c1cc(-c2ccc(C(F)(F)F)cc2)nc(C(F)(F)F)c1
69 | 97 to 98 | CC(C)(C)[Si](Oc1ccc(OCC2CO2)cc1)(c1ccccc1)c1ccccc1 (stereo not drawn)
70 | 175 to 176 | O=C(N=c1ccn(-c2ccccc2)nc1)c1ccccc1
71 | 94 to 96 | CO[C@@H]1C(S(=O)(=O)c2ccccc2)=C[C@H](C)[C@@H](O[Si](C)(C)C(C)(C)C)[C@@H](C)[C@@H]1O[Si](C)(C)C(C)(C)C
72 | 88 to 92 | CC1=CC(C)(C)OC(c2nsc3ccc(-n4c(=O)cc(C(F)(F)F)n(C)c4=O)cc23)C1 (stereo not drawn)
73 | 92 to 97 | CCc1cc2c(cc1OC)C(CN1CCC(c3noc4cc(F)ccc34)CC1)=C2
74 | 222 to 224 | COc1ccc(-c2cc(C(=O)O)c(=O)n(Cc3ccc(F)cc3)n2)cc1F
75 | > 250 | O=Cc1c[nH]c2c1ccc1c2[nH]c2cccc(Br)c21
76 | 90 to 100 | Cc1nc(-c2ccc(-c3ccccc3S(=O)(=O)Nc3onc(C)c3C)cc2)co1
77 | 123 to 124 | COc1ccccc1Oc1c(Cl)nc(SC)nc1NS(=O)(=O)c1ccc(C(C)(C)C)cc1
78 | 102 to 104 | CCOC(=O)C1(C(=O)OCC)OC(=O)c2ccccc2C1(O)c1ccc(F)cc1 (stereo not drawn)
79 | 230 to 231 | CC(C)(C)c1cc(C(=O)NCc2ccc([N+](=O)[O-])cc2)cc(C(C)(C)C)c1O
80 | 233 to 234 | O=C(O)c1cccc(-c2nc(-c3ccccc3F)no2)c1
81 | 255 to 257 | COc1ccc(C=CC(=O)Nc2cc(Cl)ccc2C(=O)O)cc1OC
82 | 218 to 220 | CC(=O)Nc1ccc(/C=C/C(=O)NCC(=O)N(C)c2ccc(C)c(CCl)c2C)cn1
83 | 246 to 248 | COc1ccc(-c2ccc(C(=O)Nc3ccc4cc(CN5CCCC5)cnc4c3)cn2)cc1
84 | 143 | Clc1ccc(C2CN3C(=N2)Sc2ccccc23)cc1 (stereo not drawn)
85 | 308 to 310 | CCCn1c(=O)c2c(NC)n[nH]c2n(Cc2ccc(Br)cc2)c1=O

Row | melting point [°C] | Compound
86 | 165 | O=C(c1cccc(NC(=O)c2ccn3c2CSC3c2cccnc2)c1)c1ccccn1 (stereo not drawn)
87 | 122 to 124 | Cc1nn(C(C)C(=O)N(C)C)c(C)c1-c1ccccc1 (stereo not drawn)
88 | 186 | COC(=O)C(=Cc1ccc(-c2cccc(N(C)C(=O)Nc3ccccc3)c2)cc1)OC
89 | 185 to 187 | CCCC(=O)Nc1nc2ccccc2n2c(CC)nnc12
90 | 111 to 112 | Fc1ccc(-c2cc(Cl)nc3c2CCCC3)cc1
91 | 151 to 153 | O=C1Cc2ccccc2C=Cc2c(Cl)cccc21
92 | > 350 | Oc1cc(-c2ccc(Cl)cc2)nc2ccc(F)cc12
93 | 152 to 153 | CCOC(=O)C(=O)c1oc(=O)[nH]c1-c1ccc(Cl)cc1
94 | 115 | COC(=O)C(Cc1ccc(Cl)cc1Cl)c1c(Cl)cccc1Cl (stereo not drawn)
95 | 232 to 234 | Nc1ncc(-c2ccc(F)c(F)c2)nc1C(=O)Nc1cccnc1
96 | 310 | Cc1c(C#N)c(N)n(-c2ccc([N+](=O)[O-])cc2)c1C
97 | 114 to 116 | CC(C)(C)c1ccc(OCC(O)CN2CCC3(CC2)CSC2=C(O3)c3cc(F)ccc3C(=O)C2=O)cc1 (stereo not drawn)
98 | 99 | CCCCc1nc(CO)c(C(=O)OC)n1Cc1ccc(-c2ccccc2C(=O)OC(C)(C)C)cc1
99 | 148 | Cc1cc(C)n(O)c(=O)c1Cc1ccccc1
100 | 167 to 169 | CCOC(=O)C1=C(COCCn2c(C)nnc2-c2ccccc2)NC(C)=C(C(=O)Nc2ccccn2)C1c1ccccc1Cl (stereo not drawn)
101 | 285 to 286 | CN(C)CC1CCn2c(c(C3=C(c4csc5ccccc45)C(=O)NC3=O)c3ccccc32)C1 (stereo not drawn)
102 | 140 to 141 | CCn1ncc2c3c4c(nc21)CCc1ccccc1-c4nn3C
103 | 208 | Cc1ccc(COc2ccc(CC(NC(=O)c3cc4cc(-c5ccc(Cl)cc5)ccc4s3)C(=O)O)cc2)cc1 (stereo not drawn)
